Like-named read-outs stand apart in the source and are kept apart here.
Tested on: HCV 1b genotype
Experiment: HCV Replicon assay (HCV 1b genotype)
Format: cell-based
Details: Hepatitis C virus, HCV 1b genotype replicon
Description: An HCV Replicon assay was utilized in the present disclosure, and was prepared, conducted and validated as described in commonly owned PCT/US2006/022197 and in O'Boyle et al., Antimicrob. Agents Chemother., 49(4):1346-1353 (April 2005). Assay methods incorporating luciferase reporters have also been used as described (Apath.com).
HCV-neo replicon cells and replicon cells containing resistance substitutions in the NS5A region were used to test the currently described family of compounds. The compounds were determined to have differing degrees of reduced inhibitory activity on cells containing mutations vs. the corresponding inhibitory potency against wild-type cells. Thus, the compounds of the present disclosure can be effective in inhibiting the function of the HCV NS5A protein and are understood to be as effective in combinations as previously described in application PCT/US2006/022197 and commonly owned WO 04/014852. It should be understood that the compounds of the present disclosure can inhibit multiple genotypes of HCV. […] In one embodiment, compounds of the present disclosure are inhibitory versus 1a, 1b, 2a, 2b, 3a, 4a, and 5a genotypes.

[1] = read-out: Range (EC50 values against HCV 1b)

SMILES | EC50 (read-out: EC50) | EC50 [1]
COC(=O)N[C@H](C(=O)N1[C@@H]2C[C@@H]2C[C@H]1c1ncc(-c2cnc3cc(-c4ccc5nc([C@@H]6C[C@H]7C[C@H]7N6C(=O)[C@@H](NC(=O)OC)C6CCOCC6)[nH]c5c4)ccc3n2)[nH]1)C1CCOCC1 [Example 58, Methyl((1S)-2-((1R,3S,5R)-3-(4-(6-(2-((1R,3S,5R)-2-((2S)-2-((methoxycarbonyl)amino)-2-(tetrahydro-2H-pyran-4-yl)acetyl)-2-azabicyclo[3.1.0]hex-3-yl)-1H-benzimidazol-5-yl)-2-quinoxalinyl)-1H-imidazol-2-yl)-2-azabicyclo[3.1.0]hex-2-yl)-2-oxo-1-(tetrahydro-2H-pyran-4-yl)ethyl)carbamate] | 0.849 nM | 0.0101 to 1 nM
COC(=O)N[C@H](C(=O)N1[C@@H](C)CC[C@H]1c1ncc(-c2ccc(-c3ccc4cc(-c5cnc([C@@H]6CC[C@H](C)N6C(=O)[C@@H](NC(=O)OC)C6CCC(F)(F)CC6)[nH]5)ccc4c3)cc2)[nH]1)C1CCC(F)(F)CC1 [Example 71, Methyl((1S)-1-(4,4-difluorocyclohexyl)-2-((2S,5S)-2-(4-(4-(6-(2-((2S,5S)-1-((2S)-2-(4,4-difluorocyclohexyl)-2-((methoxycarbonyl)amino)acetyl)-5-methyl-2-pyrrolidinyl)-1H-imidazol-4-yl)-2-naphthyl)phenyl)-1H-imidazol-2-yl)-5-methyl-1-pyrrolidinyl)-2-oxoethyl)carbamate] | 0.00211 nM | –
COC(=O)NC(C(=O)N1[C@@H]2C[C@@H]2C[C@H]1c1ncc(C#Cc2ccc3cc(-c4cnc([C@@H]5C[C@H]6C[C@H]6N5C(=O)C(NC(=O)OC)C5CCOCC5)[nH]4)ccc3c2)[nH]1)C1CCOCC1 (stereo partly drawn) [Example 75, methyl(2-((1R,3S,5R)-3-(4-(6-((2-((1R,3S,5R)-2-(((methoxycarbonyl)amino)(tetrahydro-2H-pyran-4-yl)acetyl)-2-azabicyclo[3.1.0]hex-3-yl)-1H-imidazol-4-yl)ethynyl)-2-naphthyl)-1H-imidazol-2-yl)-2-azabicyclo[3.1.0]hex-2-yl)-2-oxo-1-(tetrahydro-2H-pyran-4-yl)ethyl)carbamate] | 0.123 nM | 1.01 to 1000 nM
COC(=O)N[C@H](C(=O)N1[C@@H]2C[C@@H]2C[C@H]1c1ncc(-c2ccc(-c3ccc4nc(-c5cnc([C@@H]6C[C@H]7C[C@H]7N6C(=O)[C@@H](NC(=O)OC)C(C)C)[nH]5)ccc4c3)cc2)[nH]1)C(C)C [Example 80, methyl((1S)-1-(((1R,3S,5R)-3-(4-(6-(4-(2-((1R,3S,5R)-2-((2S)-2-((methoxycarbonyl)amino)-3-methylbutanoyl)-2-azabicyclo[3.1.0]hex-3-yl)-1H-imidazol-4-yl)phenyl)-2-quinolinyl)-1H-imidazol-2-yl)-2-azabicyclo[3.1.0]hex-2-yl)carbonyl)-2-methylpropyl)carbamate] | 0.00108 nM | –
COC(=O)N[C@H](C(=O)N1[C@@H]2C[C@@H]2C[C@H]1c1ncc(C#Cc2ccc3cc(-c4cnc([C@@H]5C[C@H]6C[C@H]6N5C(=O)[C@@H](NC(=O)OC)C5CCOCC5)[nH]4)ccc3c2)[nH]1)C1CCOCC1 [Example 82, Methyl((1S)-2-((1R,3S,5R)-3-(4-(6-((2-((1R,3S,5R)-2-((2S)-2-((methoxycarbonyl)amino)-2-(tetrahydro-2H-pyran-4-yl)acetyl)-2-azabicyclo[3.1.0]hex-3-yl)-1H-imidazol-4-yl)ethynyl)-2-naphthyl)-1H-imidazol-2-yl)-2-azabicyclo[3.1.0]hex-2-yl)-2-oxo-1-(tetrahydro-2H-pyran-4-yl)ethyl)carbamate] | 0.0422 nM | 0.0101 to 1 nM
COc1cccc2c(C(=O)N3[C@@H]4C[C@@H]4C[C@H]3c3ncc(C#Cc4ccc5cc(-c6cnc([C@@H]7C[C@H]8C[C@H]8N7C(=O)c7nc(Cl)cc8c(OC)cccc78)[nH]6)ccc5c4)[nH]3)nc(Cl)cc12 [Example 93, 3-Chloro-1-(((1R,3S,5R)-3-(4-(6-((2-((1R,3S,5R)-2-((3-chloro-5-methoxy-1-isoquinolinyl)carbonyl)-2-azabicyclo[3.1.0]hex-3-yl)-1H-imidazol-4-yl)ethynyl)-2-naphthyl)-1H-imidazol-2-yl)-2-azabicyclo[3.1.0]hex-2-yl)carbonyl)-5-methoxyisoquinoline] | 40 nM | 1.01 to 1000 nM
COC(=O)N[C@H](C(=O)N1[C@@H]2C[C@@H]2C[C@H]1c1ncc(-c2ccc3cc(C#Cc4cnc([C@@H]5C[C@H]6C[C@H]6N5C(=O)[C@@H](NC(=O)OC)C5CCOCC5)[nH]4)ccc3c2)[nH]1)C(C)C [Example 96, Methyl((1S)-2-((1R,3S,5R)-3-(4-((6-(2-((1R,3S,5R)-2-((2S)-2-((methoxycarbonyl)amino)-3-methylbutanoyl)-2-azabicyclo[3.1.0]hex-3-yl)-1H-imidazol-4-yl)-2-naphthyl)ethynyl)-1H-imidazol-2-yl)-2-azabicyclo[3.1.0]hex-2-yl)-2-oxo-1-(tetrahydro-2H-pyran-4-yl)ethyl)carbamate] | – | 0.0101 to 1 nM
COC(=O)N[C@H](C(=O)N1[C@@H]2C[C@@H]2C[C@H]1c1ncc(C#Cc2ccc3cc(-c4cnc([C@@H]5CC[C@H](C)N5C(=O)[C@@H](NC(=O)OC)C5CCOCC5)[nH]4)ccc3c2)[nH]1)C1CCOCC1 [Example 98, Methyl((1S)-2-((2S,5S)-2-(4-(6-((2-((1R,3S,5R)-2-((2S)-2-((methoxycarbonyl)amino)-2-(tetrahydro-2H-pyran-4-yl)acetyl)-2-azabicyclo[3.1.0]hex-3-yl)-1H-imidazol-4-yl)ethynyl)-2-naphthyl)-1H-imidazol-2-yl)-5-methyl-1-pyrrolidinyl)-2-oxo-1-(tetrahydro-2H-pyran-4-yl)ethyl)carbamate] | – | 0.0101 to 1 nM
COC(=O)N[C@H](C(=O)N1[C@@H]2C[C@@H]2C[C@H]1c1ncc(-c2ccc(-c3ccc4nc(-c5cnc([C@@H]6C[C@H]7C[C@H]7N6C(=O)[C@@H](NC(=O)OC)C(C)C)[nH]5)cnc4c3)cc2)[nH]1)C(C)C [Example 104] | 0.00201 nM | –
CC(=O)N1[C@@H](C)CC[C@H]1c1ncc(-c2ccc(-c3ccc4cc(-c5cnc([C@@H]6CC[C@H](C)N6C(C)=O)[nH]5)ccc4c3)cc2)[nH]1 [Example 109, 2-((2S,5S)-1-Acetyl-5-methyl-2-pyrrolidinyl)-4-(4-(6-(2-((2S,5S)-1-acetyl-5-methyl-2-pyrrolidinyl)-1H-imidazol-4-yl)-2-naphthyl)phenyl)-1H-imidazole] | 180 nM | 1.01 to 1000 nM
COC(=O)N[C@H](C(=O)N1C[C@@H](C)C[C@H]1c1ncc(-c2ccc(-c3ccc4nc(-c5cnc([C@@H]6C[C@H](C)CN6C(=O)[C@@H](NC(=O)OC)C6CCOCC6)[nH]5)ccc4c3)cc2)[nH]1)C1CCOCC1 [Example 114, Methyl((1S)-2-((2S,4S)-2-(4-(6-(4-(2-((2S,4S)-1-((2S)-2-((methoxycarbonyl)amino)-2-(tetrahydro-2H-pyran-4-yl)acetyl)-4-methyl-2-pyrrolidinyl)-1H-imidazol-4-yl)phenyl)-2-quinolinyl)-1H-imidazol-2-yl)-4-methyl-1-pyrrolidinyl)-2-oxo-1-(tetrahydro-2H-pyran-4-yl)ethyl)carbamate] | – | 0.0101 to 1 nM
COC(=O)N[C@H](C(=O)N1CCOC[C@H]1c1nc(-c2ccc(-c3ccc4cc(-c5c[nH]c([C@@H]6COCCN6C(=O)[C@@H](NC(=O)OC)C6CCOCC6)n5)ccc4c3)cc2)c[nH]1)C1CCOCC1 [Example 116, Methyl((1S)-2-((3R)-3-(4-(4-(6-(2-((3R)-4-((2S)-2-((methoxycarbonyl)amino)-2-(tetrahydro-2H-pyran-4-yl)acetyl)-3-morpholinyl)-1H-imidazol-4-yl)-2-naphthyl)phenyl)-1H-imidazol-2-yl)-4-morpholinyl)-2-oxo-1-(tetrahydro-2H-pyran-4-yl)ethyl)carbamate] | – | 0.0101 to 1 nM
COC(=O)N[C@H](C(=O)N1CCCC[C@H]1c1nc(-c2ccc(-c3ccc4cc(-c5c[nH]c([C@@H]6CCCCN6C(=O)[C@@H](NC(=O)OC)C(C)C)n5)ccc4c3)cc2)c[nH]1)C(C)C [Example 118, Methyl((1S)-1-(((2S)-2-(4-(4-(6-(2-((2S)-1-((2S)-2-((methoxycarbonyl)amino)-3-methylbutanoyl)-2-piperidinyl)-1H-imidazol-4-yl)-2-naphthyl)phenyl)-1H-imidazol-2-yl)-1-piperidinyl)carbonyl)-2-methylpropyl)carbamate] | 0.0374 nM | 0.0101 to 1 nM
COC(=O)N[C@H](C(=O)N[C@@H](C)c1ncc(-c2ccc(-c3ccc4cc(-c5cnc([C@H](C)NC(=O)[C@@H](NC(=O)OC)C(C)C)[nH]5)ccc4c3)cc2)[nH]1)C(C)C [Example 124, Methyl((1S)-1-(((1S)-1-(4-(4-(6-(2-((1S)-1-(((2S)-2-((methoxycarbonyl)amino)-3-methylbutanoyl)amino)ethyl)-1H-imidazol-4-yl)-2-naphthyl)phenyl)-1H-imidazol-2-yl)ethyl)carbamoyl)-2-methylpropyl)carbamate] | – | 0.0101 to 1 nM
COC(=O)N[C@H](C(=O)N[C@@H](C)c1ncc(-c2ccc(-c3ccc4cc(-c5cnc([C@H](C)NC(=O)[C@@H](NC(=O)OC)C6CCOCC6)[nH]5)ccc4c3)cc2)[nH]1)C1CCOCC1 [Example 125, Methyl((1S)-2-(((1S)-1-(4-(4-(6-(2-((1S)-1-(((2S)-2-((methoxycarbonyl)amino)-2-(tetrahydro-2H-pyran-4-yl)acetyl)amino)ethyl)-1H-imidazol-4-yl)-2-naphthyl)phenyl)-1H-imidazol-2-yl)ethyl)amino)-2-oxo-1-(tetrahydro-2H-pyran-4-yl)ethyl)carbamate] | 0.136 nM | 0.0101 to 1 nM
